Test results reported in patent publication US20060264418A1, “6-(2,2,2-Trifluoroethylamino-7-chloro-2,3,4,5-tetrahydro-1h-benzo[d] azephine as a 5-ht2c receptor agonist” (priority 2003, published 2006).

Key:
[1] = system: male Long-Evans rats; test: Chronic feeding assay; assay type: in vivo, rat
Description: Animals: Obtain male Long-Evans rats (Harlan Sprague-Dawley, Indianapolis, Ind.) that are approximately one hundred-days old and have been maintained on a calorie rich diet since weaning (TD 95217, 40% calories from fat; Teklad, Madison, Wis.). House the rats individually with a 12 hr.:12 hr. light:dark cycle (lights on from about 22:00 hr. to about 10:00 hr.) and maintain rats on the same diet (TD 95217) with free access to water, for about 1-2 weeks to acclimate the rats to the environment. Dose rats orally with vehicle (10% acacia with 0.15% saccharin in water) once daily for at least 1 day (typically 1-2 days) to acclimate the rats to the procedures. Randomize the rats into groups so each group has similar mean body weights.
Chronic Feeding Assay: At between approximately 8:00 hr. and 10:00 hr. on day one of the assay, weigh and orally dose each rat with vehicle or test compound and return the animal to its home cage, with free access to food (pre-weighed) and water. For each of days 2-15, at between approximately 8:00 hr. and 10:00 hr., measure rat body weight and the weight of food consumed in the last 24 hr. period, and administer daily oral dose of test compound or vehicle. On days −2 and 15 measure total fat mass and lean mass by nuclear magnetic resonance (NMR) using an EchoMRI™ system (Echo Medical Systems, Houston Tex.). (See Frank C. Tinsley, Gersh Z. Taicher, and Mark L. Heiman, “Evaluation of a New Quantitative Magnetic Resonance (QMR) Method for Mouse Whole Body Composition Analysis”, Obesity Research, submitted May 1, 2003.)

[2] = target: T1, 5-HT2C receptor (Homo sapiens, UniProt P28335); test: G alpha q-GTPγ[35S] binding agonist activity assay (ISPA), 5-HT2C; assay type: biochemical; parameters: expressed in transfected cells; host or cells: AV12 cells
T1 sequence (P28335 33-458): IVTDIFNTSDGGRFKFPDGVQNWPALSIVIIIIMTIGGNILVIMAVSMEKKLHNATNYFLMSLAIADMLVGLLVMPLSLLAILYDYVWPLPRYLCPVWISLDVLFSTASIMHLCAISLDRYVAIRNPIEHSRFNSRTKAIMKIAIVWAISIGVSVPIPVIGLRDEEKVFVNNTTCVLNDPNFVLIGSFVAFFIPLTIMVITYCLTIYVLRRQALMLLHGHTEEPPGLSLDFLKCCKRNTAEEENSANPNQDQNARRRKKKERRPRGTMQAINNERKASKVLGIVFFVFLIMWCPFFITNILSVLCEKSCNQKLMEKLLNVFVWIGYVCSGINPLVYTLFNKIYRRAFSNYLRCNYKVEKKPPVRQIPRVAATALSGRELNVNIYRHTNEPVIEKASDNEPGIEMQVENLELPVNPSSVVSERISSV

[3] = daily oral dose days 1-15, compared to control animals

FC(F)(F)CNc1c(Cl)ccc2c1CCNCC2.O=C(O)CCC(=O)O [Example 2, 7-Chloro-6-(2,2,2-trifluoroethylamino)-2,3,4,5-tetrahydro-1H-benzo[d]azepine Succinic Acid Salt]
lean body mass ([1]; NMR, days -2 and 15): not changed
cumulative body weight change [1, 3]: significantly decrease
cumulative food intake [1, 3]: significantly decrease
source of the decrease in body weight (fat mass by NMR) ([1]; days -2 and 15): loss of adipose tissue
EC50 [2]: 11.8 ± 2.8 nM
AUC 2C/2A Selectivity Ratio ([2]; ratio of AUCs normalized to 5-HT, 5-HT2C receptor/5-HT2A receptor): 2.2
AUC 2C/2B Selectivity Ratio ([2]; ratio of AUCs normalized to 5-HT, 5-HT2C receptor/5-HT2B receptor): 3.8
Emax ([2]; read-out: 5HT2C Emax): 106 ± 2.8%
